Patent US20250129135A1, “Multi-Agonist and Use Thereof” (priority 2021, published 2025)

Tests used:
C57 BL/6J DIO mice = assay: In vivo pharmacodynamics in high-fat diet induced obesity (DIO) mice; design: species or system mouse; settings: Mean±SEM; for Weight change: Table 6-1; for LDL-C / TC (total cholesterol) / TG (plasma triglycerides): Table 7-1, Day 15
Procedure, shortened: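 DIO mice (60 kcal% fat diet) dosed subcutaneously in 1×PBS, 5 ml/kg, every three days for 15 days. Daily body weight and food intake as % change from baseline; day 15 fasting glucose, plasma TC, LDL-C, TG, insulin and liver TG. Mean±SEM, one-way ANOVA with Dunnett's versus vehicle.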

[1] = Phase II clinical study, cited from earlier work
Human GLP-1R = Human GLP-1R (Homo sapiens, UniProt P43220); settings: background statement; cited from earlier work
GCG receptor = GCG receptor (Homo sapiens, UniProt P47871); settings: background statement; cited from earlier work
[2] = 26 weeks, cited from earlier work

GCG receptor, sequence (P47871 26-477): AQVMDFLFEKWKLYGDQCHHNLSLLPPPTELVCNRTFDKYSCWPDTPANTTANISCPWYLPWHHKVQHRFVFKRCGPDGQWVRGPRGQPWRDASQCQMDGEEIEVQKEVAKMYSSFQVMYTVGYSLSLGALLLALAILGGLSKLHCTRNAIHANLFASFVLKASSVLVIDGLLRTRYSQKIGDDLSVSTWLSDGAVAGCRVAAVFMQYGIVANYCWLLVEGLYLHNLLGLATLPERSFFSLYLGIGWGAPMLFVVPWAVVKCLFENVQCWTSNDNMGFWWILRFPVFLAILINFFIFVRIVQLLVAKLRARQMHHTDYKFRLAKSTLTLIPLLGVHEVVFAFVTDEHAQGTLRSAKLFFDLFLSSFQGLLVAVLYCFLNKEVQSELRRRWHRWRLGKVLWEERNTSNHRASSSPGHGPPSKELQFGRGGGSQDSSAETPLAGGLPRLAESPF
Human GLP-1R, sequence (P43220 24-463, species assumed): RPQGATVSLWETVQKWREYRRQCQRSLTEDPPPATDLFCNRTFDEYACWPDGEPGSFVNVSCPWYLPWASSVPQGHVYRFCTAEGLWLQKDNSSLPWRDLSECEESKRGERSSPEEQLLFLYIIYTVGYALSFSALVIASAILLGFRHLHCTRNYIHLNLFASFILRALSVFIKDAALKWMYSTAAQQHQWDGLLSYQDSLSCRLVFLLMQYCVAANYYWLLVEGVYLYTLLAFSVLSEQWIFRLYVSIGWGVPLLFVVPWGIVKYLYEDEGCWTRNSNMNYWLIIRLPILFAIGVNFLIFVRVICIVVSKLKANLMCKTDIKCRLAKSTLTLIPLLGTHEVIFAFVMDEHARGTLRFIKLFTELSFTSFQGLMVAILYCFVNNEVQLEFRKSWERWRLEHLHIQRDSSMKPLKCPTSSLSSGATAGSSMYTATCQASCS

Compound | Weight change (C57 BL/6J DIO mice; 3 nmol/kg s.c. Q3D for 15 days) | Weight change (C57 BL/6J DIO mice; 10 nmol/kg s.c. Q3D for 15 days) | Weight change (C57 BL/6J DIO mice; 30 nmol/kg s.c. Q3D for 15 days) | LDL-C (C57 BL/6J DIO mice; 3 nmol/kg) | TC (total cholesterol) (C57 BL/6J DIO mice; 3 nmol/kg) | TG (plasma triglycerides) (C57 BL/6J DIO mice; 3 nmol/kg) | LDL-C (C57 BL/6J DIO mice; 30 nmol/kg) | TC (total cholesterol) (C57 BL/6J DIO mice; 30 nmol/kg) | TG (plasma triglycerides) (C57 BL/6J DIO mice; 30 nmol/kg) | hypoglycemic effect ([1]; 1 mg dose vs Dulaglutide 1.5 mg) | weight loss effect ([1]; 1 mg dose) | GLP-1 receptor activity EC50 relative to wild-type GLP-1 (Human GLP-1R) | GCG receptor relative activity EC50 (GCG receptor) | body weight, blood lipids, and levels of ALT and AST ([2]; 100-300 μg compared to liraglutide) | reduction of HbA1c ([2]; each dose group compared to liraglutide)
CC[C@H](C)[C@H](NC(=O)[C@H](CC(C)C)NC(=O)[C@H](Cc1c[nH]c2ccccc12)NC(=O)[C@H](CCC(N)=O)NC(=O)[C@@H](NC(=O)[C@H](Cc1ccccc1)NC(=O)[C@H](C)NC(=O)[C@H](CCCCNC(=O)COCCOCCNC(=O)COCCOCCNC(=O)CC[C@H](NC(=O)CCCCCCCCCCCCCCCCCCC(=O)O)C(=O)O)NC(=O)[C@H](CCC(N)=O)NC(=O)[C@H](C)NC(=O)[C@@H](NC(=O)[C@H](CCCCN)NC(=O)[C@H](CC(=O)O)NC(=O)[C@H](CC(C)C)NC(=O)C(C)(C)NC(=O)[C@@H](NC(=O)[C@H](CO)NC(=O)[C@H](Cc1ccc(O)cc1)NC(=O)[C@H](CC(=O)O)NC(=O)[C@H](CO)NC(=O)[C@@H](NC(=O)[C@H](Cc1ccccc1)NC(=O)[C@@H](NC(=O)CNC(=O)[C@H](CCC(=O)O)NC(=O)C(C)(C)NC(=O)[C@@H](N)Cc1ccc(O)cc1)[C@@H](C)O)[C@@H](C)O)[C@@H](C)CC)[C@@H](C)CC)C(C)C)C(=O)N[C@@H](C)C(=O)NCC(=O)NCC(=O)N1CCC[C@H]1C(=O)N[C@@H](CO)C(=O)N[C@@H](CO)C(=O)NCC(=O)N[C@@H](C)C(=O)N1CCC[C@H]1C(=O)N1CCC[C@H]1C(=O)N1CCC[C@H]1C(=O)N[C@@H](CO)C(N)=O [Tirzepatide, reference compound] | −16.1 ± 0.71% | −21.6 ± 0.99% | −32.6 ± 1.60% | 0.62 ± 0.065 mM | 4.12 ± 0.322 mM | 0.97 ± 0.050 mM | 0.57 ± 0.057 mM | 3.28 ± 0.259 mM | 0.79 ± 0.068 mM | significantly lower than that of Dulaglutide 1.5 mg | almost no weight loss effect |  |  |  | 
CCCCCCCCCCCCCCCC(=O)N[C@@H](CCC(=O)NCCCC[C@H](NC(=O)[C@H](CC(=O)O)NC(=O)[C@H](CO)NC(=O)[C@@H](NC(=O)[C@H](Cc1ccccc1)NC(=O)[C@@H](NC(=O)CNC(=O)[C@H](CCC(N)=O)NC(=O)[C@H](CO)NC(=O)[C@@H](N)Cc1c[nH]cn1)[C@@H](C)O)[C@@H](C)O)C(=O)N[C@@H](CO)C(=O)N[C@@H](CCC(=O)O)C(=O)N[C@@H](Cc1ccc(O)cc1)C(=O)N[C@@H](CC(C)C)C(=O)N[C@@H](CC(=O)O)C(=O)N[C@@H](CO)C(=O)N[C@@H](CCC(=O)O)C(=O)N[C@@H](CCCNC(=N)N)C(=O)N[C@@H](C)C(=O)N[C@@H](CCCNC(=N)N)C(=O)N[C@@H](CC(=O)O)C(=O)N[C@@H](Cc1ccccc1)C(=O)N[C@H](C(=O)N[C@@H](C)C(=O)N[C@@H](Cc1c[nH]c2ccccc12)C(=O)N[C@@H](CC(C)C)C(=O)N[C@@H](CCC(=O)O)C(=O)N[C@@H](C)C(=O)NCC(=O)NCC(=O)O)C(C)C)C(=O)O [Cotadutide] |  |  |  |  |  |  |  |  |  |  |  | 29% | 12.8% | dose-dependent reduction | no significant advantage
